Experimental findings from ChEMBL document CHEMBL1201862, “PubChem BioAssay data set” (2004) are described below.

Among the test systems are LXFL 529; M14; HCC 2998; UO-31; OVCAR-3; SF-268; MOLT-4; RPMI-8226; A498; PC-3; MDA-N; OVCAR-8; COLO 205; SF-539; Hs-578T; RXF 393; SK-MEL-28; HOP-62; LOX IMVI; MDA-MB-231.
Holding throughout (test): NCI-60 cell line screen, 48 h

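Step 1: Grow cells in 96-well plates. Step 2: Expose to compound for 48 hours at 5 concentrations. Step 3: Interpolate endpoints linearly; if unreached, use highest concentration. GI50 is the concentration that inhibits growth by half.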 Active and inactive are the calls of the source. No stated cut-off is given here; in the data, active = GI50 up to about 1.1 µM and inactive = higher. A value given as a limit tells only on which side of the number the result lay.

For the compound `COC(=O)[C@@]12C(=O)C=CC(=O)[C@@H]1C1C(=CC2COC(C)=O)O[C@@H]2OC3(CCCCC3)O[C@H]12` (some centres not stated), the GI50 with LXFL 529 is 4.28 µM (inactive); in the assay on M14 it was 15.6 µM (inactive); in the assay on HCC 2998 it was 16.1 µM (inactive); in the assay on UO-31 it was 14.9 µM (inactive); in the assay with OVCAR-3, 6.37 µM (inactive); in the assay with SF-268, 14.2 µM (inactive). Further, the GI50 is 3.29 µM (inactive) in the assay with MOLT-4; 2.99 µM (inactive) with RPMI-8226; 22.8 µM (inactive) with A498; 12.6 µM (inactive) in the assay with PC-3; 12.6 µM (inactive) in the assay with MDA-N; 7.94 µM (inactive) in the assay on OVCAR-8. Also, the GI50 with COLO 205 was 5.77 µM (inactive); with SF-539, 10.4 µM (inactive); in the assay with Hs-578T, 9.46 µM (inactive); in the assay on RXF 393, 11.1 µM (inactive); in the assay with SK-MEL-28, 17.2 µM (inactive); in the assay with HOP-62 it was 19.8 µM (inactive). Also, the GI50 is 9.95 µM (inactive) in the assay on LOX IMVI and 19.5 µM (inactive) in the assay with MDA-MB-231.
`Fc1cccc(/C=N/C23CC4CC(CC(C4)C2)C3)c1`: the GI50 with LXFL 529, with M14, with HCC 2998, in the assay with UO-31, in the assay with OVCAR-3 and in the assay on SF-268 was > 100 µM (inactive) throughout. The GI50 in the assay on MOLT-4, in the assay with RPMI-8226, in the assay with A498, in the assay on OVCAR-8, in the assay on COLO 205 and with SF-539 was > 100 µM (inactive) in each case. Further, the GI50 in the assay on RXF 393, with SK-MEL-28, in the assay with HOP-62 and with LOX IMVI was > 100 µM (inactive) each time.
Take `COC(=O)C1=C(O)c2cc3c(cc2[C@H](c2cc(OC)c(OC)c(OC)c2)C1)OCO3`: the GI50 in the assay on LXFL 529 was 37.8 µM (inactive); in the assay with M14, 34.7 µM (inactive); in the assay with HCC 2998, 1.23 µM (inactive); in the assay with UO-31, 3.24 µM (inactive); in the assay with OVCAR-3 it was 19 µM (inactive); with SF-268 it was 51.5 µM (inactive). In addition, the GI50 with MOLT-4 was 24.1 µM (inactive); in the assay with RPMI-8226 it was 23 µM (inactive); with A498, 22.5 µM (inactive); in the assay on OVCAR-8 it was 51.3 µM (inactive); with COLO 205 it was 19.3 µM (inactive); with SF-539, > 100 µM (inactive). Further, the GI50 with RXF 393 is 57.9 µM (inactive); with SK-MEL-28, 39.2 µM (inactive); in the assay with HOP-62, > 100 µM (inactive); with LOX IMVI, 30.5 µM (inactive).
For `CC1CCCC(C(O)CC2CC(=O)N(c3ccccc3)C(=O)C2)C1=O` (configuration not stated), the GI50 in the assay with LXFL 529, with M14, in the assay on HCC 2998, in the assay with UO-31, in the assay with OVCAR-3 and with SF-268 was > 100 µM (inactive) each time. For the same compound, the GI50 in the assay on MOLT-4, in the assay with RPMI-8226, with A498, in the assay with OVCAR-8, with COLO 205 and with SF-539 was > 100 µM (inactive) each time. The GI50 with RXF 393, with SK-MEL-28, with HOP-62 and in the assay with LOX IMVI was > 100 µM (inactive) in each case.
Take `CC(=O)CC(=O)N(CCN(C(=O)CC(C)=O)c1ccccc1)c1ccccc1`: the GI50 with LXFL 529, in the assay with M14, in the assay with HCC 2998, in the assay with UO-31, in the assay with OVCAR-3 and with SF-268 was > 100 µM (inactive) each time. The GI50 in the assay on MOLT-4 was > 100 µM (inactive); with RPMI-8226, 72.9 µM (inactive); in the assay with A498, > 100 µM (inactive); in the assay on OVCAR-8, > 100 µM (inactive); in the assay on COLO 205, > 100 µM (inactive); in the assay with SF-539, > 100 µM (inactive). In addition, the GI50 in the assay with RXF 393, in the assay on SK-MEL-28, in the assay on HOP-62 and with LOX IMVI was > 100 µM (inactive) in each case.
Regarding `Cc1c(C(=O)/C=C/c2ccccc2)[n+]([O-])c2ccccc2[n+]1[O-]`, the GI50 is 13 µM (inactive) in the assay with LXFL 529; 15.3 µM (inactive) in the assay with M14; 16.6 µM (inactive) in the assay on HCC 2998; 20 µM (inactive) in the assay on UO-31; 15.1 µM (inactive) in the assay on OVCAR-3; 19.7 µM (inactive) with SF-268. Moreover, the GI50 with MOLT-4 was 21.3 µM (inactive); with RPMI-8226 it was 17.8 µM (inactive); in the assay on A498 it was 15.8 µM (inactive); in the assay with OVCAR-8, 15 µM (inactive); in the assay with COLO 205, 16.3 µM (inactive); in the assay on SF-539 it was 15.5 µM (inactive). For the same compound, the GI50 was 2.07 µM (inactive) with RXF 393, 16.7 µM (inactive) with SK-MEL-28, 18.1 µM (inactive) with HOP-62 and 14.5 µM (inactive) in the assay with LOX IMVI.
With `C\C=C/C=C/C=C/C(=O)O`, the GI50 in the assay with LXFL 529, in the assay on M14, in the assay on HCC 2998, in the assay with UO-31, in the assay on OVCAR-3 and in the assay with SF-268 was > 100 µM (inactive) throughout. The GI50 in the assay with MOLT-4, in the assay with RPMI-8226, in the assay on A498, with OVCAR-8, in the assay on COLO 205 and with SF-539 was > 100 µM (inactive) each time. In addition, the GI50 in the assay on RXF 393, with SK-MEL-28, in the assay on HOP-62 and with LOX IMVI was > 100 µM (inactive) throughout.
As for `O=C1/C(=C/c2ccc(Cl)c(Cl)c2)CNC/C1=C\c1ccc(Cl)c(Cl)c1`, the GI50 in the assay on LXFL 529 was 3.97 µM (inactive); in the assay on M14, 15.8 µM (inactive); with HCC 2998, 9.66 µM (inactive); in the assay on UO-31 it was 17.5 µM (inactive); with OVCAR-3 it was 3.89 µM (inactive); in the assay on SF-268, 3.95 µM (inactive). In addition, the GI50 in the assay on MOLT-4 was 5.4 µM (inactive); in the assay with RPMI-8226, 3.75 µM (inactive); in the assay on A498 it was 18.3 µM (inactive); in the assay on PC-3, 13.9 µM (inactive); in the assay on MDA-N, 20.4 µM (inactive); in the assay with OVCAR-8, 3.92 µM (inactive). The GI50 is 5.27 µM (inactive) in the assay with COLO 205; 7.87 µM (inactive) with SF-539; 3.21 µM (inactive) in the assay with Hs-578T; 14 µM (inactive) in the assay on RXF 393; 26.3 µM (inactive) with SK-MEL-28; 14.5 µM (inactive) in the assay on HOP-62. Further, the GI50 in the assay on LOX IMVI is 5.07 µM (inactive); in the assay with MDA-MB-231, 3.14 µM (inactive).
As to `O=[N+]([O-])c1ccc(-n2nnc(C3=NCCN3)c2-c2ccccc2)cc1`, the GI50 with LXFL 529, in the assay with M14, with HCC 2998, in the assay on UO-31, in the assay with OVCAR-3 and in the assay on SF-268 was > 100 µM (inactive) in each case. Moreover, the GI50 in the assay with MOLT-4, in the assay with RPMI-8226, in the assay with A498, in the assay on OVCAR-8, with COLO 205 and in the assay with SF-539 was > 100 µM (inactive) each time. In addition, the GI50 in the assay on RXF 393, in the assay on SK-MEL-28, in the assay on HOP-62 and with LOX IMVI was > 100 µM (inactive) in each case.
`COc1ccc(Cc2cc(OC)c(OC)c(OC)c2)cc1O`: the GI50 in the assay with LXFL 529 is 0.82 µM (active); in the assay on M14 it was 0.0255 µM (active); in the assay with HCC 2998, 2.41 µM (inactive); with UO-31 it was 1.03 µM (active); in the assay with OVCAR-3 it was 0.0365 µM (active); in the assay with SF-268, 0.122 µM (active). Besides, the GI50 in the assay on MOLT-4 was 0.0211 µM (active); in the assay with RPMI-8226, < 0.021 µM (active); with A498 it was 25.2 µM (inactive); in the assay on PC-3, < 0.0171 µM (active); with MDA-N it was < 0.01 µM (active); in the assay on OVCAR-8 it was 0.0769 µM (active). Moreover, the GI50 was > 40.2 µM (inactive) with COLO 205; 0.0334 µM (active) in the assay with SF-539; 0.0137 µM (active) in the assay on Hs-578T; 0.181 µM (active) with RXF 393; < 0.0169 µM (active) in the assay on SK-MEL-28; 0.109 µM (active) in the assay on HOP-62. The values for the GI50 with LOX IMVI and with MDA-MB-231 were 0.0547 µM (active) and 0.0122 µM (active), respectively.
